From PMC8879074, “A Novel Small Molecular Prostaglandin Receptor EP4 Antagonist, L001, Suppresses Pancreatic Cancer Metastasis” (Molecules, 2022)

Molecular target: T1, human EP1 (Homo sapiens, UniProt P34995)
T1 construct: expressed in transfected cells; host or cells: CHO-Gα16
T1 sequence (P34995 1-402): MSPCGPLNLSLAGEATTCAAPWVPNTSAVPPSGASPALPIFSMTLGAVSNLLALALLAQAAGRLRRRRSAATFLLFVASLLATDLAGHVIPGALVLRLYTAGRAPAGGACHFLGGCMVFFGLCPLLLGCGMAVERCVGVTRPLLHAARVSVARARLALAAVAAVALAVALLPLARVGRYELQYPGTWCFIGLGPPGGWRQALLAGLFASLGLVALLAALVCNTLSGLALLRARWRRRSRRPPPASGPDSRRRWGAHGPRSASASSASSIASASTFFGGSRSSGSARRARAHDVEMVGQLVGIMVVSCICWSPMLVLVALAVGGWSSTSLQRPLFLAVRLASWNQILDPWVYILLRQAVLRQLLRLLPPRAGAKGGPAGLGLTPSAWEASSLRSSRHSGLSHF
Assay: Calcium flux assay, human EP1
Format: cell-based
Settings: CHO-Gα16 cells, PGE2 (EC80)
Procedure: Calcium flux assay was conducted as described in our previous study. Briefly, CHO-Gα16 cells were transfected, respectively, with human EP1, human EP2, human EP3, human EP4, monkey EP4, mouse EP4 and rat EP4 overexpression constructs using lipofectamine 2000 according to the manufacturer’s manual. Cells were then seeded into a 96-well black plate with a cell density of 2 × 10^4 cells/100 μL per well for a 16-h culture. On the next day, cells were incubated for 45 min with reagents (100 μL/well) of Calcium-5 Assay Kit (Molecular Devices, San Jose, CA, USA). Then, cells were pre-treated with indicated concentrations of L001 for 15 min and stimulated with PGE2 (EC80). The calcium flux was detected subsequently by a Flexstation® 3 Multi-Mode Microplate Reader (Molecular Devices, San Jose, CA, USA).

Structure (SMILES): C[C@H](NC(=O)c1c(Cc2cccc(C(F)(F)F)c2)sc2c1CCOC2)c1ccc(C(=O)O)cc1 [L001]
- IC50: > 10 µM
